Source: the supplement of paper PMC10307832

Key:
Experiment in all cases: relative viability (nuclei count vs DMSO), 5 days (fraction); higher = more cells survive
[1] = compound: CC(C)N(CCCNC(=O)Nc1ccc(C(C)(C)C)cc1)C[C@H]1O[C@@H](n2ccc3c(N)ncnc32)[C@H](O)[C@@H]1O + CS(=O)(=O)N1CCN(Cc2cc3nc(-c4cccc5[nH]ncc45)nc(N4CCOCC4)c3s2)CC1 [Pictilisib] (partner 1 µM)
How it was run: (§1)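 After 5 days of treatment, lung cancer cells in 1536-well plates were fixed and stained in a single step (final 0.05% Triton X-100, 1% formaldehyde, 1 ug/ml Hoechst) and their nuclei counted on 4× images. Treatment had been applied by pin tool the day after seeding as one drug alone or as a fixed anchor-drug dose with five library-drug doses (not always all listed) in √10 steps. Relative viability is the nuclei count of treated wells divided by that of vehicle wells, and values are medians of duplicate plates.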

[2] = compound: CC(C)N(CCCNC(=O)Nc1ccc(C(C)(C)C)cc1)C[C@H]1O[C@@H](n2ccc3c(N)ncnc32)[C@H](O)[C@@H]1O + COc1cc2c(Oc3ccc(NC(=O)C4(C(=O)Nc5ccc(F)cc5)CC4)cc3F)ccnc2cc1OCCCN1CCOCC1 [Foretinib] (partner 0.25 µM)
How it was run: as §1

[3] = compound: CC(C)N(CCCNC(=O)Nc1ccc(C(C)(C)C)cc1)C[C@H]1O[C@@H](n2ccc3c(N)ncnc32)[C@H](O)[C@@H]1O + C[C@]1(O)C[C@@H](c2nc(-c3ccc4ccc(-c5ccccc5)nc4c3)c3c(N)nccn32)C1 [Linsitinib] (partner 1 µM)
How it was run: as §1

[4] = compound: CC(C)N(CCCNC(=O)Nc1ccc(C(C)(C)C)cc1)C[C@H]1O[C@@H](n2ccc3c(N)ncnc32)[C@H](O)[C@@H]1O + CCNC(=O)c1noc(-c2cc(C(C)C)c(O)cc2O)c1-c1ccc(CN2CCOCC2)cc1 [Luminespib] (partner 0.01 µM)
How it was run: as §1

**Q.** How did the relative viability ([1]; first compound 0.08 µM) turn out when UMC-11 was run?
**A.** The relative viability was 0.683.

**Q.** What about the relative viability ([1]; first compound 0.253 µM) of the same cell line?
**A.** Its relative viability is 0.662.

**Q.** What about the relative viability ([1]; first compound 0.8 µM) of the same cell line?
**A.** The relative viability was 0.783.

**Q.** What about the relative viability ([1]; first compound 2.53 µM) of the same cell line?
**A.** Its relative viability is 0.805.

**Q.** And the relative viability ([1]; first compound 8 µM)?
**A.** Its relative viability is 0.745.

**Q.** What about the relative viability ([2]; first compound 0.08 µM) of the same cell line?
**A.** Its relative viability is 0.979.

**Q.** What about the relative viability ([2]; first compound 0.253 µM) of the same cell line?
**A.** The relative viability was 0.984.

**Q.** And the relative viability ([2]; first compound 0.8 µM)?
**A.** Its relative viability is 1.06.

**Q.** And the relative viability ([2]; first compound 2.53 µM)?
**A.** The relative viability was 0.975.

**Q.** What about the relative viability ([2]; first compound 8 µM) of the same cell line?
**A.** The relative viability was 1.02.

**Q.** And the relative viability ([3]; first compound 0.08 µM)?
**A.** The relative viability was 0.953.

**Q.** What about the relative viability ([3]; first compound 0.253 µM) of the same cell line?
**A.** Its relative viability is 0.96.

**Q.** And the relative viability ([3]; first compound 0.8 µM)?
**A.** Its relative viability is 1.07.

**Q.** And the relative viability ([3]; first compound 2.53 µM)?
**A.** The relative viability was 1.02.

**Q.** And the relative viability ([3]; first compound 8 µM)?
**A.** Its relative viability is 0.889.

**Q.** What about the relative viability ([4]; first compound 0.08 µM) of the same cell line?
**A.** Its relative viability is 1.01.

**Q.** And the relative viability ([4]; first compound 0.253 µM)?
**A.** The relative viability was 0.992.

**Q.** And the relative viability ([4]; first compound 0.8 µM)?
**A.** The relative viability was 0.915.

**Q.** And the relative viability ([4]; first compound 2.53 µM)?
**A.** Its relative viability is 1.

**Q.** What about the relative viability ([4]; first compound 8 µM) of the same cell line?
**A.** The relative viability was 0.977.
